Article PMC10945332, “Precision peptide theranostics: developing N- to C-terminus optimized theranostics targeting cholecystokinin-2 receptor” (Theranostics, 2024)

Experiments:
human CCK2R = molecular target: T1, human CCK2R (Homo sapiens, UniProt P32239); assay: Competitive binding against [177Lu]Lu-DOTA-CP04 in A431-CCK2R cells
T1 construct: stably transfected to over-express the human full-length CCK2R (A431-CCK2R); expressed in transfected cells
T1 sequence (P32239 1-447): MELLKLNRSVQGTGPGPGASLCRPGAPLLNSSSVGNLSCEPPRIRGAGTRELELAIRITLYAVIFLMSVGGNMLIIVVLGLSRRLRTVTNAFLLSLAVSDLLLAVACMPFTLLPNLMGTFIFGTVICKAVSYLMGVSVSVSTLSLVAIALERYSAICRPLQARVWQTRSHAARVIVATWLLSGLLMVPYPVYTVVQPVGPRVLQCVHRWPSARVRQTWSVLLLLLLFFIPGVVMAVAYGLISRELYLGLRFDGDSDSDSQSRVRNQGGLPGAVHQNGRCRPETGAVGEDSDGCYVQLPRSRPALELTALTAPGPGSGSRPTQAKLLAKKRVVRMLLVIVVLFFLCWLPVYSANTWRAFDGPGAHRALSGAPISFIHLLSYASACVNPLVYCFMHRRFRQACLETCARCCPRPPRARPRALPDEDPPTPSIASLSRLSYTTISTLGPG
Method: Materials and Methods: Biology […]
In Vitro CCK2R-Ligand Competitive Binding Assays
All CCK2R binding experiments were conducted using A431 (human epidermoid carcinoma) […]
cells stably transfected to over-express the human full-length CCK2R (A431-CCK2R) (gifted […]
by Dr. Elisabeth von Guggenberg, Medizinische Universität Innsbruck).[41] As a negative […]
control, A431 cells stably transfected with an empty vector were analysed simultaneously […]
(A431-EV). All A431 cells were maintained in DMEM (Gibco, Australia) media supplemented […]
with 10% foetal calf serum and 250 µg/mL G418 as described previously.[32]
The affinity of all peptides for the CCK2R was evaluated using competitive binding assays […]
Briefly, 48 hours before the experiment […]
cells were plated at a density of 300,000 cells per well in 12 well plates. On the day of the […]
experiment, linear peptides were diluted in DMEM supplemented with 1% foetal calf serum to […]
DOTA-CP04 was added to each dilution. Cells were washed twice in ice-cold binding buffer […]
(DMEM supplemented with 1% foetal calf serum) and resuspended in 1 mL of the pre-prepared […]
peptide mix before being incubated at room temperature for 1 hour. Post-incubation the media […]
was removed and kept for analysis (unbound fraction) and the cells were washed twice in ice- […]
cold PBS which was pooled with the unbound fraction. Finally, 1 M NaOH (150µL) was added […]
to the wells and allowed to incubate for 5 min before lysates were collected (bound fraction).
A small volume of lysate was kept aside to determine protein concentration using the Pierce® BCA protein assay kit (Thermo Fisher, Australia). All samples were analysed using the Perkin […]
normalised according to protein concentration. Half maximal inhibitory concentration (IC50) was determined using nonlinear regression calculated using Gr aphPad Prism Software (GraphPad Software, California, USA). […]

CCK2R = test system: CCK2R; parameters: method as in PMID 33826325; conditions: peptide with gallium coordinated DOTA at the N-terminus; previously assessed; read-out: affinity for CCK2R; cited from earlier work
A431-CCK2R tumors = conditions: A431-CCK2R/NSG mouse model; 1 hour post-injection; data shown for [177Lu]Lu-CP04; cited from earlier work
AR42J xenografts = conditions: AR42J xenografts; [68Ga]Ga labeled; 1 hour post-injection; cited from earlier work

Q: Which IC50 (human CCK2R) does the source give for `CSCC[C@H](NC(=O)[C@H](Cc1c[nH]c2ccccc12)NC(=O)CNC(=O)[C@H](Cc1ccc(O)cc1)NC(=O)[C@H](C)NC(=O)[C@@H](CCC(=O)O)NC(=O)[C@@H](CCC(=O)O)NC(=O)[C@@H](CCC(=O)O)NC(=O)[C@@H](CCC(=O)O)NC(=O)[C@@H](CCC(=O)O)NC(=O)[C@H](N)CCC(=O)O)C(=O)N[C@@H](CC(=O)O)C(=O)N[C@@H](Cc1ccccc1)C(N)=O` [CP04, reference compound] here?
A: The IC50 was 2.33 nM.

Q: What about the “fold decrease in affinity for CCK2R without gallium coordinated DOTA at the N-terminus” value (human CCK2R; linear peptide vs its Ga-DOTA form) of the same compound?
A: The value was “greater than 3 fold”.

Q: And the IC50 (CCK2R)?
A: The IC50 was 0.76 nM.

Q: And the Tumor uptake (A431-CCK2R tumors)?
A: The Tumor uptake was 2.5 ± 0.3 [62] % ID/g.

Q: And the Tumor uptake (AR42J xenografts)?
A: Its Tumor uptake is 5.5 ± 0.8 [34] % ID/g.
